Assay results taken from the supplement of paper PMC10307832.

How the values were obtained:
Experiment in all cases: relative viability (nuclei count vs DMSO), 5 days (fraction); higher = more cells survive
Seliciclib + Pictilisib = compound: CC[C@H](CO)Nc1nc(NCc2ccccc2)c2ncn(C(C)C)c2n1 [Seliciclib] + CS(=O)(=O)N1CCN(Cc2cc3nc(-c4cccc5[nH]ncc45)nc(N4CCOCC4)c3s2)CC1 [Pictilisib] (partner 1 µM)
In short: (§1)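 Cells from lung cancer lines were seeded into 1536-well plates and, one day later, dosed by pin tool. Treatments were either a single drug or a fixed dose of an anchor drug with five library-drug doses (not always all listed) in √10 steps. After 5 days, nuclei were stained in a one-step fixation (final 0.05% Triton X-100, 1% formaldehyde, 1 ug/ml Hoechst) and counted on 4× images, and relative viability is the treated-to-vehicle nuclei ratio, as the median of duplicate plates.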

Seliciclib + Phenformin = compound: CC[C@H](CO)Nc1nc(NCc2ccccc2)c2ncn(C(C)C)c2n1 [Seliciclib] + N=C(N)NC(=N)NCCc1ccccc1 [Phenformin] (partner 250 µM)
In short: as §1

Seliciclib + AZD7762 = compound: CC[C@H](CO)Nc1nc(NCc2ccccc2)c2ncn(C(C)C)c2n1 [Seliciclib] + NC(=O)Nc1cc(-c2cccc(F)c2)sc1C(=O)N[C@H]1CCCNC1 [AZD7762] (partner 0.2 µM)
In short: as §1

Seliciclib + Alpelisib = compound: CC[C@H](CO)Nc1nc(NCc2ccccc2)c2ncn(C(C)C)c2n1 [Seliciclib] + Cc1nc(NC(=O)N2CCC[C@H]2C(N)=O)sc1-c1ccnc(C(C)(C)C(F)(F)F)c1 [Alpelisib] (partner 2 µM)
In short: as §1

Cell Line	relative viability (Seliciclib + Pictilisib; first compound 0.08 µM)	relative viability (Seliciclib + Pictilisib; first compound 0.253 µM)	relative viability (Seliciclib + Pictilisib; first compound 0.8 µM)	relative viability (Seliciclib + Pictilisib; first compound 2.53 µM)	relative viability (Seliciclib + Pictilisib; first compound 8 µM)	relative viability (Seliciclib + Phenformin; first compound 0.08 µM)	relative viability (Seliciclib + Phenformin; first compound 0.253 µM)	relative viability (Seliciclib + Phenformin; first compound 0.8 µM)	relative viability (Seliciclib + Phenformin; first compound 2.53 µM)	relative viability (Seliciclib + Phenformin; first compound 8 µM)	relative viability (Seliciclib + AZD7762; first compound 0.08 µM)	relative viability (Seliciclib + AZD7762; first compound 0.253 µM)	relative viability (Seliciclib + AZD7762; first compound 0.8 µM)	relative viability (Seliciclib + AZD7762; first compound 2.53 µM)	relative viability (Seliciclib + AZD7762; first compound 8 µM)	relative viability (Seliciclib + Alpelisib; first compound 0.08 µM)	relative viability (Seliciclib + Alpelisib; first compound 0.253 µM)	relative viability (Seliciclib + Alpelisib; first compound 0.8 µM)	relative viability (Seliciclib + Alpelisib; first compound 2.53 µM)	relative viability (Seliciclib + Alpelisib; first compound 8 µM)
201T	0.712	0.693	0.676	0.656	0.626	0.413	0.441	0.47	0.383	0.418	0.578	0.534	0.69	0.622	0.734	1.01	1.02	0.997	0.997	0.966
A-427	0.753	0.737	0.646	0.688	0.695	0.325	0.354	0.307	0.276	0.295	0.763	0.912	0.853	1.13	0.998	1.05	1.16	1.12	1.08	0.927
ABC-1	0.773	0.927	0.619	0.42	0.424	0.251	0.257	0.234	0.281	0.222	0.944	0.764	0.782	0.719	0.637	0.819	0.888	0.775	0.964	0.931
BEN	0.596		0.549	0.675	0.545	0.268	0.249	0.125	0.284	0.227	0.808	0.584	0.694	0.672	0.61	1.13		0.844	1.12	0.862
CAL-12T	0.304	0.566	0.39	0.303	0.221	0.604	0.789	0.612	0.53	0.376	0.509	0.772	0.71	0.707	0.729	1.11		0.86	1	0.946
COR-L23	0.63	0.782	0.86	0.584	0.49	0.435	0.534	0.465	0.378	0.382						0.708	0.868	0.764	0.78	0.538
COR-L 105	0.379	0.379	0.371	0.32	0.36	0.466	0.565	0.549	0.389	0.481						0.994	0.808	1.05	1.04	0.748
Calu-6	0.93	0.969	0.937	0.917	0.759											0.942	0.993	1.04	1.01	0.809
ChaGo-K-1	0.766	0.533	0.638	0.513	0.378	0.485	0.389	0.508	0.422	0.384	0.875	0.511	0.895	0.918	0.892					
EBC-1	0.449	0.407	0.387	0.354	0.343											0.901	0.88	0.895	0.828	0.616
EKVX	0.42	0.5	0.417	0.423	0.305		0.255	0.189	0.215	0.199	0.767	0.767	0.791	0.642	0.711	0.844	0.9	0.799	0.794	0.674
EMC-BAC-2	0.505	0.526	0.497	0.392	0.51	0.505	0.515	0.524	0.436	0.479	1.2	1.21	1.25	0.794	0.946	0.759	0.731	0.739	0.774	0.703
EPLC-272H	0.316	0.338	0.287	0.174	0.3	0.329	0.335	0.295	0.219	0.333	0.203	0.17	0.208	0.329	0.347	0.968	0.847	0.795	1.04	0.895
H3255	0.47	0.567	0.487	0.483	0.502	0.357	0.357	0.368	0.322	0.348	0.811	0.848	0.951	0.839	0.823	0.608	0.667	0.721	0.806	0.587
HARA	0.284	0.376	0.339	0.422	0.283	0.424	0.423	0.469	0.47	0.393	0.348	0.293	0.381	0.596	0.908	0.892	0.911	0.747	0.855	0.776
HCC-15	0.705	0.857	0.473	0.791	0.548	0.491	0.519	0.419	0.383	0.352	1.09	1.37	1.22	1.19	1.02	0.956	0.954	0.846	0.902	0.712
HCC-44	0.639	0.691	0.534	0.46	0.44	0.309	0.126	0.375	0.0882	0.174	1.02	1.05	1.12	1.12	0.944	0.845	0.834	0.798	0.74	0.707
HCC-78	0.203	0.274	0.187	0.174	0.181	0.706	0.795	0.65	0.536	0.474	0.689	0.66	0.62	0.525	0.51	0.375	0.358	0.329	0.285	0.339
